The record followed here is patent US20020137725A1, “Use of tagatose in promoting cardiovascular health” (priority 2001, published 2002).

Test [1] can be described thus: Pilot study of long term effects of D-tagatose in humans with type-2 diabetes (University of Maryland). The format is in vivo. The settings on record: long term treatment; each of the subjects, both the patients (type-2 diabetes) and the controls. How it is done:
U.S. Pat. No. 5,447,917 discloses and claims a method for treating diabetes by administering to a mammal an amount of D-tagatose effective to inhibit the rise in blood sugar associated with the consumption of sugar. A pilot study was conducted at the University of Maryland to investigate the long term effects of D-tagatose in humans with type-2 diabetes.

Test [2] is described as follows: Example 1: tagatose given to a human patient with lowered HDL level. The format is in vivo. The settings on record: 15 grams with each of three meals per day, after six months. The source says: A human patient is diagnosed as having a lowered HDL level than that found in a previous visit. The physician is concerned that this may forecast atherosclerosis, possibly leading to a heart attack, or to a stroke. The physician prescribes that the patient take 15 grams of tagatose with each of three meals per day. […] The physician is satisfied with the improvement and prescribes continued […] doses of tagatose per meal as a means of maintaining and improving the patient's cardiovascular health.

The structures appear in SMILES notation.

Consider `O=C(CO)[C@@H](O)[C@@H](O)[C@H](O)CO` [D-tagatose], for which the HDL-cholesterol levels result in test [1] is “increase in HDL-cholesterol levels”. With `O=C(CO)[C@@H](O)[C@@H](O)[C@H](O)CO` [tagatose], in test [2], the “patient's HDL level versus immediately before treatment” value is “significantly higher”.
